Paper PMC9369419 (International Journal of Molecular Sciences, 2022)

How the values were obtained:
[1] = biological target: T1, GluK1 (Rattus norvegicus, UniProt P22756); experiment: Radioligand binding at recombinant homomeric GluK1 in Sf9 membranes; details: recombinant rat homomeric receptor, [3H]-(S)-NF608, mean ± SEM
T1 construct: made in house; host or cells: Sf9 insect cells (membranes)
Procedure: (§1) Ligand binding affinities at recombinant rat homomeric GluA2, GluK1−3, and GluK5 were determined as previously detailed. […] The filters were dried at 70 °C for 1 h, and 50 μL/well Microscint 20 (PerkinElmer, Waltham, MA, USA) was added. Radioactivity was detected with a TopCounter (PerkinElmer, Waltham, MA, USA). GluA2 and GluK5 assays were filtered on GF/C type filters using Millipore 12-well filtration manifolds (Merck Life Science, Søborg, Denmark) and washed twice with ice-cold assay buffer. Filters were placed in pony vials (PerkinElmer, Waltham, MA, USA), 3 mL of Ultima Gold scintillation fluid (PerkinElmer, Waltham, MA, USA) was added, and DPM (disintegrations per minute) were determined using a TriCarb 2900 scintillation counter (PerkinElmer, Waltham, MA, USA).
(§2) All competition curves (n ≥ 3 per ligand) were determined in triplicate. Data were analyzed using GraphPad Prism 6 (GraphPad Software, San Diego, CA, USA) to determine ligand affinity (Ki) and Hill coefficient (nH) using the one-site Ki and four-parameter logistics equations, respectively.

[2] = biological target: T2, GluK3 (Rattus norvegicus, UniProt P42264); experiment: Radioligand binding at recombinant homomeric GluK3 in Sf9 membranes; details: recombinant rat homomeric receptor, [3H]-kainic acid, mean ± SEM
T2 construct: made in house; host or cells: Sf9 insect cells (membranes)
Procedure: as §1, §2

[3] = biological target: T3, GluK2 (Rattus norvegicus, UniProt P42260); experiment: Radioligand binding at recombinant homomeric GluK2 in Sf9 membranes; details: recombinant rat homomeric receptor, [3H]-kainic acid, mean ± SEM
T3 construct: made in house; host or cells: Sf9 insect cells (membranes)
Procedure: as §1, §2

[4] = biological target: T4, GluK5 (Rattus norvegicus, UniProt Q63273); experiment: Radioligand binding at recombinant homomeric GluK5 in Sf9 membranes; details: recombinant rat homomeric receptor, [3H]-kainic acid, mean ± SEM
T4 construct: made in house; host or cells: Sf9 insect cells (membranes)
T4 sequence (Q63273 15-979): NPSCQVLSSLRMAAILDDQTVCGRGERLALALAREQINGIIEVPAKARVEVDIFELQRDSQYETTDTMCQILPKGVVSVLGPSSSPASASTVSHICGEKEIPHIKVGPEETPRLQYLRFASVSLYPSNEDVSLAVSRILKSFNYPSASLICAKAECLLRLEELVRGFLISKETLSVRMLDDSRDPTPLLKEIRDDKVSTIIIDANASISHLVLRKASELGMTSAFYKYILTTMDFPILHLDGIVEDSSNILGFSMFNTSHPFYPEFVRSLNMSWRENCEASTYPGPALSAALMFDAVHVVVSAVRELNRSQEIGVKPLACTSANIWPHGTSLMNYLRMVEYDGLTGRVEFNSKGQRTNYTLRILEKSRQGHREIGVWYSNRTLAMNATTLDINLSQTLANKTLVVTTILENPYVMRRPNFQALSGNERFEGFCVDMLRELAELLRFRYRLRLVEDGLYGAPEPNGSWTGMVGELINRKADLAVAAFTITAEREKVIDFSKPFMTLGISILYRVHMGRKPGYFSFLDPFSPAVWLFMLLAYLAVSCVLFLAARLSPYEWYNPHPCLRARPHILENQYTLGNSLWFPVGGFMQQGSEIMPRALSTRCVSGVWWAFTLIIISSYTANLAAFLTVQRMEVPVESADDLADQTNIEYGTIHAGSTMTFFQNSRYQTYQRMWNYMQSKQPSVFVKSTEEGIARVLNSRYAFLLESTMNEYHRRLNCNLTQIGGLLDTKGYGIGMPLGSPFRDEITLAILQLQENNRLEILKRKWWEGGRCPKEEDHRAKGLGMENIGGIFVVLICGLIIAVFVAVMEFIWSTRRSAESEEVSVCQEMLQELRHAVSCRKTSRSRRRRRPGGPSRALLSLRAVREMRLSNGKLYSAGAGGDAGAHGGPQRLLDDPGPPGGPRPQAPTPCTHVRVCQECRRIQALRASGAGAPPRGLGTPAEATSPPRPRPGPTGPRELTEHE
Procedure: as §1, §2

[5] = biological target: T5, GluA2 (Rattus norvegicus, UniProt P19491); experiment: Radioligand binding at recombinant homomeric GluA2 in Sf9 membranes; details: recombinant rat homomeric receptor, [3H]-(RS)-AMPA, mean ± SEM
T5 construct: made in house; host or cells: Sf9 insect cells (membranes)
Procedure: as §1, §2

[6] = biological target: T6, GluK3a (Rattus norvegicus, UniProt P42264); experiment: Intracellular Ca2+ imaging assay, HEK293 cells expressing GluK3a; type: cell-based; details: 100 µM KA + 300 µM BPAM344, Ca2+ fluorescence, read-out: IC50, antagonism of agonist-evoked responses at GluK3
T6 construct: expressed in transfected cells
Source text: For the determination of antagonistic activity of compounds at GluK1, GluK3 and GluA2 receptors, stable HEK293 cell lines expressing rat GluK1b(Q), GluK3a, and GluA2(Q)i were created. A polyclonal stable cell line expressing GluK3a was created as described previously. For the creation of polyclonal stable cell lines expressing GluK1and GluA2 receptors, cDNA encoding blasticidin-S deaminase (blas) enzymes were inserted into the pIRES plasmid vector (Clontech, Mountain View, CA, USA) to create the plasmid vector pRES(blas). Subsequently, cDNA for rat GluK1(Q)1b and the flip isoform of rat GluA2(Q)i were inserted into pRES(blas) to create the expression constructs GluK1b(Q)pIRES(blas) and GluA2i(Q)pIRES(blas), respectively. These were used to transfect GripTite^TM HEK293 cells followed by selecting with 20 µg/mL blasticidin (Invivogen, Toulouse, France) and 0.50 mg/mL geneticin in the presence of 20 µM of the AMPA receptor antagonist CNQX (Tocris, Bristol, UK) until stably transfected GluK1b(Q) and GluA2(Q)i cell lines were obtained. For functional assays, cells were plated into clear-bottomed, black 96-well fluorescence culture plates (Corning, Vordingborg, Denmark), and when >70% confluent, the cells were loaded with 2 μM Fluo 4-AM calcium sensitive dye (Abcam, Cambridge, UK) and used for the imaging of agonist-evoked changes in intracellular Ca^2+ using a FlexStation I plate reader (Molecular Devices, San Jose, CA, USA). […] Changes in dye fluorescence in response to the addition of an agonist solution were then measured at 538 nm using excitation at 485 nm and emission cut-off at 515 nm. Baseline fluorescence was measured for 16 s before the addition of 50 µL agonist solution to each well of the assay plate, and fluorescence was measured for 120 to 160 s after addition of the agonists. Peak change in fluorescence was calculated as the difference between the maximal observed increase in fluorescence and pre-agonist baseline fluorescence. The agonist solutions contained 100 µM KA together with 300 µM of the KAR positive allosteric modulator BPAM344 (Sigma-Aldrich Chemical, St. Louis, MO, USA) for GluK1 and GluK3 experiments or 100 µM glutamate together with 100 µM of the AMPAR positive allosteric modulator cyclothiazide for GluA2 experiments (HelloBio, Bristol, UK). Responses were determined in at least triplicate at each compound concentration.

[7] = biological target: T2, GluK3; details: at least; cited from earlier work

T1 sequence (P22756 31-949): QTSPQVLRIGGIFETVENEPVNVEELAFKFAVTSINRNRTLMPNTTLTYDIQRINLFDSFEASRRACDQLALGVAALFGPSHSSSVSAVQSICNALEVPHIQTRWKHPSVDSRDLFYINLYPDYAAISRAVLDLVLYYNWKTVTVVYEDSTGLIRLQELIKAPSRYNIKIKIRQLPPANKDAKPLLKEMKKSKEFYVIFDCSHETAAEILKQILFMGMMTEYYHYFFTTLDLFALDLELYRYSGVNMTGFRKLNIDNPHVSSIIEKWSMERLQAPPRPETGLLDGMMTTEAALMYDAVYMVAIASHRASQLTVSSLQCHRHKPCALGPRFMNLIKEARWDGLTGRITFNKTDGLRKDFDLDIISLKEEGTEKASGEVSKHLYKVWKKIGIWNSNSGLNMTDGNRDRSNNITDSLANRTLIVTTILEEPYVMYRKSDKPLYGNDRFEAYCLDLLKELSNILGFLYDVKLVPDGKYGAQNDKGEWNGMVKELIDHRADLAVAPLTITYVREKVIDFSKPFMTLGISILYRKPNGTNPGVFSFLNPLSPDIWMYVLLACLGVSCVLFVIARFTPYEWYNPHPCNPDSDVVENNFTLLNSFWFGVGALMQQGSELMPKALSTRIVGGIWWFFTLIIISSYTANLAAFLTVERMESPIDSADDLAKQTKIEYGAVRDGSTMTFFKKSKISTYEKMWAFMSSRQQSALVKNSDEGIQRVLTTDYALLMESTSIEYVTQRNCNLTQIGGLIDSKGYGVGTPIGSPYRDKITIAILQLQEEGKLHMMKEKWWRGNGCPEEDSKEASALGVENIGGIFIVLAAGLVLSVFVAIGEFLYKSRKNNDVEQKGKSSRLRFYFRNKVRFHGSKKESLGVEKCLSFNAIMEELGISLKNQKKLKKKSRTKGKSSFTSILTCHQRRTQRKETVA
T2 sequence (P42264 32-919): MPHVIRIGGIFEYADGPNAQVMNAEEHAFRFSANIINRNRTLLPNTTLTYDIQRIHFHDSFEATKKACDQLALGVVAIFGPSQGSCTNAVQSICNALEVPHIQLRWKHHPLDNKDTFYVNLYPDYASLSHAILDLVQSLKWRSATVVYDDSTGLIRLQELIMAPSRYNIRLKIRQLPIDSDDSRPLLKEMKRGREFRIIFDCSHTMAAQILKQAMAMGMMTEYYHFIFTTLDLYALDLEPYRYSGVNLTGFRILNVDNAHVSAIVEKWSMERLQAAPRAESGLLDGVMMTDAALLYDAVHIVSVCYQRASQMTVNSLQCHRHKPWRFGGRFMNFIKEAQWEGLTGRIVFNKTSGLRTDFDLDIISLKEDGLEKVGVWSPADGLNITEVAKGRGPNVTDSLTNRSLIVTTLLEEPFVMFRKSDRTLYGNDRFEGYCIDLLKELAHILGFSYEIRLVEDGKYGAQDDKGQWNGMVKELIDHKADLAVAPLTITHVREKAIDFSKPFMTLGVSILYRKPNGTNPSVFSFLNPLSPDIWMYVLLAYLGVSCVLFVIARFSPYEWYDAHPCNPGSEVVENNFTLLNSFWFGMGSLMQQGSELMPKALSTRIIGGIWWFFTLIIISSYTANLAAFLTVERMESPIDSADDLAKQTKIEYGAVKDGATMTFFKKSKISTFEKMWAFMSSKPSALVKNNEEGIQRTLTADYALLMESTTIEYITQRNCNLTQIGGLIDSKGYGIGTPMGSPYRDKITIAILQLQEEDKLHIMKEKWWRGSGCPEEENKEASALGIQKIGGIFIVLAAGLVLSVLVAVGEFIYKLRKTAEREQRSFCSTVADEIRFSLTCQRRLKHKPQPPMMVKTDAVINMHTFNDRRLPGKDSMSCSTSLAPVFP
T3 sequence (P42260 32-908): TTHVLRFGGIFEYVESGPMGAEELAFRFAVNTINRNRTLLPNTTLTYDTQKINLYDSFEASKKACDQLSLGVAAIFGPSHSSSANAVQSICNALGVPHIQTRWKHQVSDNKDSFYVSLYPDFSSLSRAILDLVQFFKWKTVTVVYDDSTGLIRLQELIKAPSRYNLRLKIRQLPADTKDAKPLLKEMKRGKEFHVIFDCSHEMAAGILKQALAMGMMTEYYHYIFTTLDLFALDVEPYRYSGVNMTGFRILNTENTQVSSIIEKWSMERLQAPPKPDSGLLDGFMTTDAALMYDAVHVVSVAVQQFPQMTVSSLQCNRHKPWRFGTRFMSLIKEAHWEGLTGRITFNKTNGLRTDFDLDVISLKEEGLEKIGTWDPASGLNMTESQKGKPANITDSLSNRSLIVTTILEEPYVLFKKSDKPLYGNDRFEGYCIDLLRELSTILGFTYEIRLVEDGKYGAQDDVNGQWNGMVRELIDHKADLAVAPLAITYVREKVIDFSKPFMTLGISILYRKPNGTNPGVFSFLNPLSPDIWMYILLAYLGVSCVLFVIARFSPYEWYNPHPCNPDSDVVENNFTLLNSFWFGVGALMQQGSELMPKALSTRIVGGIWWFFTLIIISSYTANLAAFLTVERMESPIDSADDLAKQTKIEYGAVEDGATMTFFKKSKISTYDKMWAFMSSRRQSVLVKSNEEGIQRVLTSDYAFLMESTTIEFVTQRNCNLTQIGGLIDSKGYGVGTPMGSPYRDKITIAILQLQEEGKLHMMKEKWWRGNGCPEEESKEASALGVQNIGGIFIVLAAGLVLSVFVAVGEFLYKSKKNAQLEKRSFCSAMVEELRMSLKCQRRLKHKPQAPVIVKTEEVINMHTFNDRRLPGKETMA
T5 sequence (P19491 22-883): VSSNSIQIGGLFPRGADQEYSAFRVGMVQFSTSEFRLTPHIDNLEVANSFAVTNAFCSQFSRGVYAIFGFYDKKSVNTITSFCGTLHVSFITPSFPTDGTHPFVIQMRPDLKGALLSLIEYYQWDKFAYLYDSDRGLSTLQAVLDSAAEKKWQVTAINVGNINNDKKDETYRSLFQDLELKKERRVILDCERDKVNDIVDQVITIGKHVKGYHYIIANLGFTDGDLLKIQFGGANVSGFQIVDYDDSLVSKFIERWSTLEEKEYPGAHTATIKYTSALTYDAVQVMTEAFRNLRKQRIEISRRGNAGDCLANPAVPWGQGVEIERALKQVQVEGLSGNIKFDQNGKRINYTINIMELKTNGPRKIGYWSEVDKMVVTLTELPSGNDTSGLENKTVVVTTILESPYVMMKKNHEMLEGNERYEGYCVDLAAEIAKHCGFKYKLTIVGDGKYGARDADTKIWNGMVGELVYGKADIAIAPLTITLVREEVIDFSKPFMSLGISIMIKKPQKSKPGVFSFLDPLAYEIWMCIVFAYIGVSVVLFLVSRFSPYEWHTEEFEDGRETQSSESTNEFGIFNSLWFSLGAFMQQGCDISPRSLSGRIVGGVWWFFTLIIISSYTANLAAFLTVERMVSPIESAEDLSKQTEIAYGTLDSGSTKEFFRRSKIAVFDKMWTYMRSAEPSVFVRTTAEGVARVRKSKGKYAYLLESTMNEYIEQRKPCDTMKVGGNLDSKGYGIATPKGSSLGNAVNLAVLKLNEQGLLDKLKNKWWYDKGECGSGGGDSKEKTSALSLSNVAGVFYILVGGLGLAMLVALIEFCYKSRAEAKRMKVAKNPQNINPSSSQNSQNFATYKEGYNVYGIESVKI
T6 sequence (P42264 32-919): as the sequence (P42264 32-919) above

Row | SMILES | Ki [1] [µM] | Ki [2] [µM] | Ki [3] [µM] | Ki [4] [µM] | Ki [5] [µM] | melting point [°C] | IC50 [6] [µM] | binding preference at GluK3 over the GluK1, GluK2 and GluK5 subtypes [7]
1 | O=C(Nn1c(=O)c(=O)[nH]c2cc(C#Cc3ccc(Cl)cc3)ccc21)c1ccccc1 [Compound 10] | > 100 | 3.5 ± 0.7 | > 100 | > 100 | > 100 | 326 to 327 | – | –
2 | CCc1ccc(C#Cc2ccc3c(c2)[nH]c(=O)c(=O)n3NC(=O)c2ccccc2)cc1 [Compound 7] | > 100 | 20 ± 1 | > 100 | > 100 | > 100 | 308 to 310 | – | –
3 | O=C(O)c1ccc(C#Cc2ccc3c(c2)[nH]c(=O)c(=O)n3NC(=O)c2ccccc2)cc1 [Compound 15] | > 100 | 31 ± 4 | > 100 | > 100 | > 100 | 348 to 349 | – | –
4 | COc1ccc(C#Cc2ccc3c(c2)[nH]c(=O)c(=O)n3NC(=O)c2ccccc2)cc1 [Compound 12] | > 100 | 8.3 ± 0.4 | > 100 | > 100 | > 100 | 304 to 305 | – | –
5 | Cc1cccc(C#Cc2ccc3c(c2)[nH]c(=O)c(=O)n3NC(=O)c2ccccc2)c1 [Compound 5] | ~100 | 1.4 ± 0.4 | ~100 | > 100 | > 100 | 318 to 320 | – | –
6 | Cc1ccc(C#Cc2ccc3c(c2)[nH]c(=O)c(=O)n3NC(=O)c2ccccc2)cc1 [Compound 6] | ≥ 100 | 6.1 ± 0.8 | – | – | – | 325 to 327 | – | –
7 | CC(C)c1ccc(C#Cc2ccc3c(c2)[nH]c(=O)c(=O)n3NC(=O)c2ccccc2)cc1 [Compound 9] | > 100 | 38 ± 10 | > 100 | > 100 | > 100 | 263 to 264 | – | –
8 | O=C(Nn1c(=O)c(=O)[nH]c2cc(C#Cc3ccc(Oc4ccccc4)cc3)ccc21)c1ccccc1 [Compound 13] | ≥ 100 | 7.9 ± 0.7 | – | – | – | 262 to 263 | – | –
9 | CCCc1ccc(C#Cc2ccc3c(c2)[nH]c(=O)c(=O)n3NC(=O)c2ccccc2)cc1 [Compound 8] | > 100 | 50 ± 12 | > 100 | > 100 | > 100 | 305 to 306 | – | –
10 | NS(=O)(=O)c1ccc(C#Cc2ccc3c(c2)[nH]c(=O)c(=O)n3NC(=O)c2ccccc2)cc1 [Compound 16] | > 100 | ~100 | > 100 | > 100 | > 100 | 303 to 305 | – | –
11 | N[C@@H](Cc1c[nH]c(S)n1)C(=O)O [(S)-2-mercaptohistidine] | – | – | – | – | – | – | – | 15–100 fold
12 | O=C(Nn1c(=O)c(=O)[nH]c2cc(C#Cc3ccc(C(F)(F)F)cc3)ccc21)c1ccccc1 [Compound 11] | ~100 | > 100 | > 100 | > 100 | > 100 | – | – | –
13 | O=C(O)c1cccc(C#Cc2ccc3c(c2)[nH]c(=O)c(=O)n3NC(=O)c2ccccc2)c1 [Compound 14] | > 100 | 28 ± 2 | > 100 | > 100 | > 100 | 310 to 312 | – | –

Continued, in another order:

Row | Ki [1] [µM] | Ki [2] [µM] | Ki [3] [µM] | Ki [4] [µM] | Ki [5] [µM] | melting point [°C] | IC50 [6] [µM] | SMILES | binding preference at GluK3 over the GluK1, GluK2 and GluK5 subtypes [7]
14 | > 100 | 14 ± 2 | – | – | – | – | – | O=C(Nn1c(=O)c(=O)[nH]c2cc(-c3cc4ccccc4o3)ccc21)c1ccccc1 [Compound 18] | –
15 | > 100 | 1.4 ± 0.2 | > 100 | > 100 | > 100 | 312 to 314 | – | Nc1ccc(C#Cc2ccc3c(c2)[nH]c(=O)c(=O)n3NC(=O)c2ccccc2)cc1 [Compound 23] | –
16 | ~100 | 5.8 ± 1.5 | > 100 | > 100 | > 100 | 298 to 300 | – | O=C(Nn1c(=O)c(=O)[nH]c2cc(C#Cc3ccc(CO)cc3)ccc21)c1ccccc1 [Compound 20] | –
17 | 0.15 ± 0.05 | 0.13 ± 0.03 | 0.091 ± 0.015 | 3.8 ± 0.1 | 0.23 ± 0.02 | – | 2.2 | O=C(Nn1c(=O)c(=O)[nH]c2cc(C#Cc3ccc4[nH]ncc4n3)ccc21)c1ccccc1 [Compound 29] | –
18 | 39 ± 4 | 24 ± 4 | – | – | – | 273 to 275 | – | CN(C)c1ccc(C#Cc2ccc3c(c2)[nH]c(=O)c(=O)n3NC(=O)c2ccccc2)cc1 [Compound 24] | –
19 | – | – | 5.4 ± 1.2 | 152 ± 23 | – | – | – | NS(=O)(=O)c1cccc2c1c([N+](=O)[O-])cc1nc(O)c(O)nc12 [NBQX, reference compound] | –
20 | > 100 | 25 ± 6 | > 100 | > 100 | > 100 | 239 to 241 | – | O=C(Nn1c(=O)c(=O)[nH]c2cc(C#Cc3ccncc3)ccc21)c1ccccc1 [Compound 25] | –
21 | 11 ± 2 | 0.28 ± 0.02 | 12 ± 2 | > 100 | > 100 | 318 to 320 | 0.6 | O=C(Nn1c(=O)c(=O)[nH]c2cc(C#Cc3cncnc3)ccc21)c1ccccc1 [Compound 27] | –
22 | > 100 | ~100 | – | – | – | 274 to 275 | – | Nc1cccc(C#Cc2ccc3c(c2)[nH]c(=O)c(=O)n3NC(=O)c2ccccc2)c1 [Compound 22] | –
23 | 14 ± 2 | 1 ± 0.1 | – | – | – | 303 to 305 | – | Nc1ccccc1C#Cc1ccc2c(c1)[nH]c(=O)c(=O)n2NC(=O)c1ccccc1 [Compound 21] | –
24 | > 100 | 3.2 ± 0.6 | > 100 | > 100 | ~100 | 313 to 314 | – | O=C(Nn1c(=O)c(=O)[nH]c2cc(C#Cc3cccc(O)c3)ccc21)c1ccccc1 [Compound 19] | –
